Test results as given in patent US20230092890A1, “1, 3, 4-Oxadiazole derivative compounds as histone deacetylase 6 inhibitor, and the pharmaceutical composition comprising the same” (Chong Kun Dang Pharmaceutical Corp., priority 2019, published 2023).

Key:
HDAC6 human recombinant = molecular target: T1, HDAC6 human recombinant (Homo sapiens, UniProt Q9UBN7); assay: HDAC enzyme activity inhibition (in vitro), HDAC6 assay; assay type: biochemical; details: samples at 0.1, 1, 10, 100 and 1000 nM; 37° C. 60 minutes; fluorescence Ex 390, Em 460; read-out: HDAC6 IC50
T1 construct: purchased Calbiochem 382180
T1 sequence (Q9UBN7 1-1215): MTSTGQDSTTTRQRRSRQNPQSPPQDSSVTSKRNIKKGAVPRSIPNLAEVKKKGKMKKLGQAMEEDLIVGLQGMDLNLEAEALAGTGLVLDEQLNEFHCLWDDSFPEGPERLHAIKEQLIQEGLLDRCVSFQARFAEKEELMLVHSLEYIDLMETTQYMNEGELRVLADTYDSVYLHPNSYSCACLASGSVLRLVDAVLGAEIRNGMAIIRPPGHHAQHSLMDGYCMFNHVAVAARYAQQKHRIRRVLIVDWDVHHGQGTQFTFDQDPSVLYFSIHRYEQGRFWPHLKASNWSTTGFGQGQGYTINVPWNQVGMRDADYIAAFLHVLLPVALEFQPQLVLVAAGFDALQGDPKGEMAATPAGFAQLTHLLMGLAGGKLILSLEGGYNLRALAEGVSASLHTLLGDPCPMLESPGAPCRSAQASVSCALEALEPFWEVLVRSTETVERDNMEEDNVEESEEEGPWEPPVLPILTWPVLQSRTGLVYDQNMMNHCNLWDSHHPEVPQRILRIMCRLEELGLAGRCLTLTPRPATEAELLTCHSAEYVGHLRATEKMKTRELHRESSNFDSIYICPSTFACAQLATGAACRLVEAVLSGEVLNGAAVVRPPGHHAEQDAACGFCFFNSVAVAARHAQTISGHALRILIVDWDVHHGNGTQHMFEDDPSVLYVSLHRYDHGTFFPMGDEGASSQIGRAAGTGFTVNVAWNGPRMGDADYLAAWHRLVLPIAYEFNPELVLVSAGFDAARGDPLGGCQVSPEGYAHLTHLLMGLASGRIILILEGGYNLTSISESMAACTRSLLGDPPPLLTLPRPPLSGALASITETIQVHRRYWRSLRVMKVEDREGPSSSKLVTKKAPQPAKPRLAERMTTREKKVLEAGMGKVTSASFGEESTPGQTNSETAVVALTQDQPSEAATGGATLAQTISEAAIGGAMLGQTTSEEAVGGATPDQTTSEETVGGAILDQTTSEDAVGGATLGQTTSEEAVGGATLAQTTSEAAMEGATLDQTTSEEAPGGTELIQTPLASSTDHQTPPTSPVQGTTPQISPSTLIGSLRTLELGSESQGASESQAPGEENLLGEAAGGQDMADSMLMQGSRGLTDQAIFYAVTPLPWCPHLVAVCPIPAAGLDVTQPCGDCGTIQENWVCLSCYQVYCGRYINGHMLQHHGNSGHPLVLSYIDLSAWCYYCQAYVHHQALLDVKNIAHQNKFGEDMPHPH
Method in brief: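 Fluorescence (Ex 390, Em 460) read after a 37° C, 60 min enzyme reaction and a further 30 min developer step at 37° C. Uses recombinant human HDAC6; HDAC1 arm dosed at 100, 1000, 10000 nM.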

HDAC1 = molecular target: T2, HDAC1 (Homo sapiens, UniProt Q13547); assay: HDAC enzyme activity inhibition (in vitro), HDAC1 Fluorimetric Drug Discovery Assay Kit; assay type: biochemical; details: samples at 100, 1000 and 10000 nM; 37° C. 60 minutes; fluorescence Ex 390, Em 460; read-out: HDAC1 IC50
T2 construct: purchased Enzolifesciences BML-AK511
T2 sequence (Q13547 whole entry): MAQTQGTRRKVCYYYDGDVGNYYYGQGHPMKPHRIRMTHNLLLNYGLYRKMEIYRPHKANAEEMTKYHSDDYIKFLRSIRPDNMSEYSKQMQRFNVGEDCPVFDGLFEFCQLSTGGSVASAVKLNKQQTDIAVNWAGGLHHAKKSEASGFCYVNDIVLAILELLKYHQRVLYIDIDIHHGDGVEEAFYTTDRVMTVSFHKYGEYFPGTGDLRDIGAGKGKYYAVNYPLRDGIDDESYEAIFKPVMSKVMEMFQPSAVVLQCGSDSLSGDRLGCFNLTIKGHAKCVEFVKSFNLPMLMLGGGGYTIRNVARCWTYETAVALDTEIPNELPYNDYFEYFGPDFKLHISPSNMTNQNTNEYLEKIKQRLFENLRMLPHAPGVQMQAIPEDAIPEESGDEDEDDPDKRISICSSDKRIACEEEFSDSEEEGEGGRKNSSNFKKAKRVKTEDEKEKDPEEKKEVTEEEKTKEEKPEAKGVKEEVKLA
Method in brief: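 Each sample reacted with enzyme for 60 min at 37° C before a 30-min developer step at the same temperature. HDAC1 doses spanned 100 to 10000 nM. Fluorescent signal was read at Ex 390/Em 460.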

Row | SMILES | IC50 (HDAC6 human recombinant) [µM] | IC50 (HDAC1) [µM]
1 | O=c1n(Cc2ccc(-c3nnc(C(F)F)o3)cn2)c2cc(F)c(-c3cccnc3)cc2n1[C@H]1CCCN(C2COC2)C1 [Compound 297, (S)-1-((5-(5-(difluoromethyl)-1,3,4-oxadiazole-2-yl)pyridine-2-yl)methyl)-6-fluoro-3-(1-(oxetan-3-yl)piperidine-3-yl)-5-(pyridine-3-yl)-1,3-dihydro-2H-benzo[d]imidazole-2-one] | 0.01 | > 10
2 | CS(=O)(=O)N1CCC(n2c(=O)n(Cc3ccc(-c4nnc(C(F)F)o4)cn3)c3ncccc32)CC1 [Compound 203, 3-((5-(5-(difluoromethyl)-1,3,4-oxadiazole-2-yl)pyridine-2-yl)methyl)-1-(1-(methylsulfonyl)piperidine-4-yl)-1,3-dihydro-2H-imidazo[4,5-b]pyridine-2-one] | 0.105 | > 10
3 | O=c1n(Cc2ccc(-c3nnc(C(F)F)o3)cn2)c2cc(F)c(-c3cccnc3)cc2n1C1CCN(CC(F)(F)F)CC1 [Compound 240, 1-((5-(5-(difluoromethyl)-1,3,4-oxadiazole-2-yl)pyridine-2-yl)methyl)-6-fluoro-5-(pyridine-3-yl)-3-(1-(2,2,2-trifluoroethyl)piperidine-4-yl)-1,3-dihydro-2H-benzo[d]imidazole-2-one] | 0.027 | > 10
4 | O=c1n(Cc2ccc(-c3nnc(C(F)F)o3)cc2F)c2cc(F)ccc2n1C1CCN(C2COC2)CC1 [Compound 71, 3-(4-(5-(difluoromethyl)-1,3,4-oxadiazole-2-yl)-2-fluorobenzyl)-5-fluoro-1-(1-(oxetan-3-yl)piperidine-4-yl)-1,3-dihydro-2H-benzo[d]imidazole-2-one] | 0.019 | > 10
5 | O=c1oc2cc(-c3cnn(C4CCNCC4)c3)c(F)cc2n1Cc1ccc(-c2nnc(C(F)F)o2)cn1 [Compound 359, 3-((5-(5-(difluoromethyl)-1,3,4-oxadiazole-2-yl)pyridine-2-yl)methyl)-5-fluoro-6-(1-(piperidine-4-yl)-1H-pyrazole-4-yl)benzo[d]oxazole-2(3H)-one] | 0.033 | > 10
6 | O=c1oc2cc(-c3ccnc(N4CCNCC4)c3)c(F)cc2n1Cc1ccc(-c2nnc(C(F)F)o2)cn1 [Compound 368, 3-((5-(5-(difluoromethyl)-1,3,4-oxadiazole-2-yl)pyridine-2-yl)methyl)-5-fluoro-6-(2-(piperazine-1-yl)pyridine-4-yl)benzo[d]oxazole-2(3H)-one] | 0.018 | > 10
7 | O=c1n(Cc2ccc(-c3nnc(C(F)F)o3)cc2F)c2cc(C(F)(F)F)ccc2n1C1CCN(C2COC2)CC1 [Compound 92, 3-(4-(5-(difluoromethyl)-1,3,4-oxadiazole-2-yl)-2-fluorobenzyl)-1-(1-(oxetan-3-yl)piperidine-4-yl)-5-(trifluoromethyl)-1,3-dihydro-2H-benzo[d]imidazole-2-one] | 0.062 | > 10
8 | O=c1oc2cc(-c3ccnc(N4CCN(C5COC5)CC4)c3)c(F)cc2n1Cc1ccc(-c2nnc(C(F)F)o2)cn1 [Compound 366, 3-((5-(5-(difluoromethyl)-1,3,4-oxadiazole-2-yl)pyridine-2-yl)methyl)-5-fluoro-6-(2-(4-(oxetan-3-yl)piperazine-1-yl)pyridine-4-yl)benzo[d]oxazole-2(3H)-one] | 0.052 | > 10
9 | CN1CCC(n2c(=O)n(Cc3ccc(-c4nnc(C(F)F)o4)cc3)c3cc(-c4cccnc4)ccc32)CC1 [Compound 132, 3-(4-(5-(difluoromethyl)-1,3,4-oxadiazole-2-yl)benzyl)-1-(1-methylpiperidine-4-yl)-5-(pyridine-3-yl)-1,3-dihydro-2H-benzo[d]imidazole-2-one] | 0.281 | > 10
10 | CN1CCC(n2c(=O)n(Cc3ccc(-c4nnc(C(F)F)o4)cn3)c3cc(F)c(-c4ccc5[nH]ncc5c4)cc32)CC1 [Compound 256, 1-((5-(5-(difluoromethyl)-1,3,4-oxadiazole-2-yl)pyridine-2-yl)methyl)-6-fluoro-5-(1H-indazole-5-yl)-3-(1-methylpiperidine-4-yl)-1,3-dihydro-2H-benzo[d]imidazole-2-one] | 0.008 | > 10
